Data as given in patent US11028068B2, “Somatostatin modulators and uses thereof” (Crinetics Pharmaceuticals, Inc., priority 2017, dated 2021).

Biological target: T1, human somatostatin receptor subtype 2 (Homo sapiens, UniProt P30874)
T1 construct: expressed in transfected cells; host or cells: CHO (Chinese hamster ovary) cells, cultured under G-418 selection
Test: cAMP assay (inhibition of cAMP activities via sst2 receptor)
Format: cell-based
Conditions: CHO cells expressing the human somatostatin receptor subtype 2, forskolin
Source text: General overview: All five SSTR subtypes are Gi coupled G-protein coupled receptors (GPCRs) that lead to decreases in intracellular cyclic AMP (cAMP) when activated by an agonist. Therefore, measurement of intracellular cAMP levels can be used to assess whether compounds of the invention are agonists of SSTR subtypes (John Kelly, Troy Stevens, W. Joseph Thompson, and Roland Seifert, Current Protocols in Pharmacology, 2005,2.2.1-2.2). One example of an intracellular cAMP assay is described below.
One day prior to the assay, 40,000 Chinese hamster ovary (CHO) cells expressing the human somatostatin receptor subtype 2 are plated in each well of a 96-well tissue culture plate in DM-MEM growth media (Gibco) with the following additives: 10% fetal bovine serum (Gibco), 100 U/mL penicillin (Gibco), 100 ug/mL streptomycin (Gibco), 10 mM HEPES (Gibco), 1.2 mM sodium hydroxide, 0.5 mg/mL G-418 (Gibco)). The cells are cultured overnight at 37° C., 5% CO2 and 95% humidity. On the day of the assay, the media is aspirated and the cells are washed with 1X Dulbecco's phosphate buffered saline (Gibco). Next, 5 μL of assay buffer (1× Earle's Balanced Salt Solution (Gibco), 5 mM MgCl2, 10 mM HEPES, 0.1% bovine serum albumin, 0.2 mM 3-Isobutyl-1-methylxanthine (IBMX, Biomol Research Labs)) and forskolin is added. Various dilutions of the compounds of the invention are prepared in assay buffer and 5 μL of the dilutions are added to the cultured cells and incubated for 15 minutes at 37° C. (the final concentration of the compounds of the invention are typically 0-10,000 nM). 10 μL of lysis buffer (HRTF cAMP kit, Cisbio) containing cAMP detection and visualization antibodies are added and the assay is allowed incubate for 1-24 hours at room temperature. The intracellular cAMP concentrations are then measured using a commercially available detection kit (for example, the cAMP HTRF kit, Cisbio). The measured intracellular cAMP concentrations are plotted vs. the concentration of the compounds of the invention and the EC50 of the compounds are calculated using standard methods.

T1 sequence (P30874 whole entry): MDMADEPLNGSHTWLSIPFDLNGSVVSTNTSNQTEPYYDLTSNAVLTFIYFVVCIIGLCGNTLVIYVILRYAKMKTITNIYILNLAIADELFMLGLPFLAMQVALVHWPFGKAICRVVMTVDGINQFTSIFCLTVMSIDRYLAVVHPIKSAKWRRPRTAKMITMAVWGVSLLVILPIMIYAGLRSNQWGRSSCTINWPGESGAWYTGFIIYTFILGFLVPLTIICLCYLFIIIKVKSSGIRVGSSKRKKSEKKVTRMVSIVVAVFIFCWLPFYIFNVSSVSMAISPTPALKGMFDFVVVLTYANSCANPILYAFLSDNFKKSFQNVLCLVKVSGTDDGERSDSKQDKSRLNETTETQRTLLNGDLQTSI

SMILES | EC50 [nM]
CC1CN(c2cnc3ccc(-c4cccc(O)c4)nc3c2C(=O)N(C)C[C@@H]2CCCN2)CC(C)O1 (stereo partly drawn) [Compound 3-6, 3-(2,6-dimethylmorpholin-4-yl)-6-(3-hydroxyphenyl)-N-methyl-N-[(2S)-pyrrolidin-2-ylmethyl]-1,5-naphthyridine-4-carboxamide] | < 100
CN(C[C@@H]1CCCN1)C(=O)c1c(N2CCCC2)cnc2ccc(-c3cccc(O)c3)nc12 [Compound 3-4, 6-(3-hydroxyphenyl)-N-methyl-3-(pyrrolidin-1-yl)-N-[(2S)-pyrrolidin-2-ylmethyl]-1,5-naphthyridine-4-carboxamide] | < 100
CN(C[C@@H]1CCCN1)C(=O)c1c(N2CCO[C@H](c3ccccc3)C2)cnc2ccc(-c3cc(F)cc(C#N)c3)nc12 [Compound 3-42, 6-(3-cyano-5-fluorophenyl)-N-methyl-3-[(2R)-2-phenylmorpholin-4-yl]-N-[(2S) -pyrrolidin-2-ylmethyl]-1,5-naphthyridine-4-carboxamide] | 100 to 1000
CN(C[C@@H]1CCCN1)C(=O)c1c(N2CCC(CO)C2)cnc2ccc(-c3cccc(O)c3)nc12 (stereo partly drawn) [Compound 3-17, 3-[3-(hydroxymethyl)pyrrolidin-1-yl]-6-(3-hydroxyphenyl)-N-methyl-N-[(2S)-pyrrolidin-2-ylmethyl]-1,5-naphthyridine-4-carboxamide] | 100 to 1000
CC[C@H](N)CN(C)C(=O)c1c(-c2cc(C)cc(Cl)c2)cnc2ccc(-c3cc(O)cc(C(N)=O)c3)cc12 [Compound 1-8, N-[(25)-2-aminobutyl]-6-(3-carbamoyl-5-hydroxyphenyl)-3-(3-chloro-5-methylphenyl)-N-methylquinoline-4-carboxamide] | 100 to 1000
CN(C[C@@H]1CCCN1)C(=O)c1c(-c2cccc(-n3cccn3)c2)cnc2ccc(-c3cccc(O)c3)nc12 [Compound 2-8, 6-(3-hydroxyphenyl)-N-methyl-3-[3-(1H-pyrazol-1-yl)phenyl]-N-[(2S)-pyrrolidin-2-ylmethyl]-1,5-naphthyridine-4-carboxamide] | 100 to 1000
Cc1cc(Cl)cc(-c2cnc3ccc(-c4cc(O)cc(C#N)c4)nc3c2C(=O)N(C)C[C@@H]2CCCN2)c1 [Compound 2-4, 3-(3-chloro-5-methylphenyl)-6-(3-cyano-5-hydroxyphenyl)-N-methyl-N-[(2S)-pyrrolidin-2-ylmethyl]-1,5-naphthyridine-4-carboxamide] | 100 to 1000
CN(C[C@@H]1CCCN1)C(=O)c1c(N2Cc3ccc(C(F)(F)F)cc3C2)cnc2ccc(-c3cc(F)cc(C#N)c3)nc12 [Compound 3-55, 6-(3-cyano-5-fluorophenyl)-N-methyl-N-[(2S)-pyrrolidin-2-ylmethyl]-3-[5-(trifluoromethyl)-2,3-dihydro-1H-isoindol-2-yl]-1,5-naphthyridine-4-carboxamide] | 100 to 1000

Second part, the compound after the results:

EC50 [nM] | SMILES
100 to 1000 | CN(C[C@@H]1CCCN1)C(=O)c1c(-c2cccc(C#N)c2)cnc2ccc(-c3cc(F)cc(C#N)c3)nc12 [Compound 2-15, 6-(3-cyano-5-fluorophenyl)-3-(3-cyanophenyl)-N-methyl-N-[(2S)-pyrrolidin-2-ylmethyl]-1,5-naphthyridine-4-carboxamide]
< 100 | Cc1cc(F)cc(-c2cnc3ccc(-c4cccnc4)cc3c2C(=O)N(C)C[C@@H]2CCCN2)c1 [Compound 3-48, 3-(3-fluoro-5-methylphenyl)-N-methyl-6-(pyridin-3-yl)-N-[(2S)-pyrrolidin-2-ylmethyl]quinoline-4-carboxamide]
< 100 | Cc1cc(F)cc(-c2cnc3ccc(-c4cncc(C#N)c4)cc3c2C(=O)N(C)C[C@@H]2CCCN2)c1 [Compound 3-8, 6-(5-cyanopyridin-3-yl)-3-(3-fluoro-5-methylphenyl)-N-methyl-N-[(2S)-pyrrolidin-2-ylmethyl]quinoline-4-carboxamide]
100 to 1000 | CN(C)C(=O)c1cccc(-c2cnc3ccc(-c4cccc(O)c4)cc3c2C(=O)N(C)C[C@@H]2CCCN2)c1 [Compound 1-73, 3-[3-(dimethylcarbamoyl)phenyl]-6-(3-hydroxyphenyl)-N-methyl-N-[(2S)-pyrrolidin-2-ylmethyl]quinoline-4-carboxamide]
